Like-named read-outs stand apart in the source and are kept apart here.
Columns and labels:
[1] = Pharmacokinetics in mice (plasma exposure after oral administration); assay type: in vivo; details: ICR mice, oral (i.g.) 3 mg/kg; for AUC(0-inf): mouse, read-out: After oral administration of 3 mg/kg, mouse plasma exposure AUCinf
Procedure: • LC-20AD high performance liquid chromatography (SHIMADZU, Japan) • API4000 triple quadrupole mass spectrometer (Applied Biosystem, USA) • Phenix Winnolin Pharmacokinetic software (Version 6.3, Certara, USA) • High speed freezing centrifuge (Thermo Fisher Scientific) • Analytical balance (Sartorius, SECURA225D-ICN) • ICR mice (Chengdu Dossy Experimental Animals CO., LTD.)
A suitable amount of drug was accurately weighed, and then the medium (5% DMSO, 15% HS-15, 80% DSW) was added to prepare the solution at a concentration of 0.1 mg/ml (i.v.) and 0.3 mg/ml (i.g.).
18 healthy adult ICR mice were divided into two groups (9 mice for i.v. group; 9 mice for i.g. group), and administered by tail vein or by gavage after fasting overnight (free drinking water); using the satellite blood collection method, 3 animals were collected at each time point, and then 0.1 ml of blood obtained at different time points was anticoagulated with EDTA-K2, centrifuged at 4° C. for 5 min to separate the plasma, and stored at −80° C. for detection. The sampling time points after i.v. administration were 5 min, 15 min, 0.5 h, 1 h, 2 h, 4 h, 8 h, 12 h, and 24 h; while the sampling time points for i.g. group were before administration (0 h) as well as 0.5 h, 1 h, 2 h, 4 h, 6 h, 8 h, 12 h, and 24 h after administration. Then, the drug concentration in plasma was determined by LC/MS/MS.

[2] = target: T1, androgen receptor (AR) splicing variant AR-v7 (Homo sapiens, UniProt P10275); experiment: Degradation activity on androgen receptor splicing variant AR-v7 in 22RV1 cells (ELISA); assay type: cell-based; details: AR-v7 degradation in 22RV1 cells, 48 h, class symbols
T1 construct: The degradation activity of compounds on AR-v7 in 22RV1 cells; host or cells: 22RV1 cells
T1 sequence (P10275 1-644 isoform P10275-3): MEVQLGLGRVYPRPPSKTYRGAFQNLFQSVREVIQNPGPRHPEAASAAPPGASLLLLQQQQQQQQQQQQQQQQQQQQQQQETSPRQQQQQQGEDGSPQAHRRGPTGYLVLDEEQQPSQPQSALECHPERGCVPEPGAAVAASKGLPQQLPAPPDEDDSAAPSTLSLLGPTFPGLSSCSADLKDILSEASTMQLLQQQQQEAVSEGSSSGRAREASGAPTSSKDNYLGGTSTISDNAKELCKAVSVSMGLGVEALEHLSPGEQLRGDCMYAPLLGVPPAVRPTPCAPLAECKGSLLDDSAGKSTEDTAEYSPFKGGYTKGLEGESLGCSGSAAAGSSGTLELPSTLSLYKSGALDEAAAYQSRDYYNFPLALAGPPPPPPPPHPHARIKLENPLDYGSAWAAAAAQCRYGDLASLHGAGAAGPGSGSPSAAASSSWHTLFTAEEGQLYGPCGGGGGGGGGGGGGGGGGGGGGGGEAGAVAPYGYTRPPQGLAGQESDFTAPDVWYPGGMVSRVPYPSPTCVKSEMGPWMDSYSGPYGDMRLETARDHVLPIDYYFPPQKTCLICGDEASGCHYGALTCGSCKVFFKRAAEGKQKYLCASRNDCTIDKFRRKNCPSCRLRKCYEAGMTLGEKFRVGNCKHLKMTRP

[3] = Homo sapiens, 22Rv1, 144 h, read-out: 22RV1 IC50 (nM), 22RV1 cells, 6 days culture, CCK-8, OD 450 nm

Compound	IC50 (22RV1 cells; [3])	AUC(0-inf) [1]	DC50 [2]	IC50 (22RV1 cells; read-out: 22RV1 IC50, 22RV1 cells, 6 days culture, CCK-8, OD 450 nm)	After oral administration of 3 mg/kg, mouse plasma exposure AUCinf (μg*h/mL) [1]
CC(C)(c1ccc(OCc2ccnc(N3CC4(COC4)C3)n2)cc1)c1ccc(O[C@H]2C[C@H](Nc3ccc4c(c3)C(=O)N(C3CCC(=O)NC3=O)C4=O)C2)cc1 (stereo partly shown) [Example 75]	8 nM	5000 to 30000 ng·h/mL	< 10 nM		
CC(C)(c1ccc(OCc2ccnc(N3CC4(COC4)C3)n2)cc1)c1ccc(O[C@H]2C[C@@H](Nc3ccc4c(c3)C(=O)N(C3CCC(=O)NC3=O)C4=O)C2)cc1 (stereo partly shown) [Example 76, 5-(((1s,3s)-3-(4-(2-(4-((2-(2-oxa-6-azaspiro[3.3]heptane-6-yl)pyrimidin-4-yl)methoxy)phenyl)propan-2-yl)phenoxy)cyclobutyl)amino)-2-(2,6-dioxopiperidin-3-yl)isoindolin-1,3-dione]	11 nM	1000 to 5000 ng·h/mL	< 10 nM		
CC(O)c1ncc(Oc2ccc(C(C)(C)c3ccc(O[C@H]4C[C@H](Nc5ccc6c(c5)C(=O)N(C5CCC(=O)NC5=O)C6=O)C4)cc3)cc2)cn1 (stereo partly shown) [Example 118]	3 nM				A (30-5 μg*h/mL)
CC(C)(c1ccc(OCc2ccnc(N3CC4(COC4)C3)n2)cc1)c1ccc(N2CC(Nc3ccc4c(c3)C(=O)N(C3CCC(=O)NC3=O)C4=O)C2)cc1 (stereo not shown) [Example 154]	7 nM	1000 to 5000 ng·h/mL	< 10 nM		
CNC(=O)c1nccc(COc2ccc(C(C)(C)c3ccc(OCCCNc4ccc5c(c4)C(=O)N(C4CCC(=O)NC4=O)C5=O)cc3)cc2)n1 (stereo not shown) [Example 183, 4-((4-(2-(4-(3-((2-(2,6-dioxopiperidin-3-yl)-1,3-dioxoisoindolin-5-yl)amino)propoxy)phenyl)propan-2-yl)phenoxy)methyl)-N-methylpyrimidin-2-carbonylamine]	20 nM	100 to 1000 ng·h/mL	11 to 100 nM		
COc1ncc2c(n1)CN(c1ccc(C(C)(C)c3ccc(OC4CC(Nc5ccc6c(c5)C(=O)N(C5CCC(=O)NC5=O)C6=O)C4)cc3)cc1)CC2 (stereo not shown) [Example 188]	12 nM	1000 to 5000 ng·h/mL	< 10 nM		
Cc1nsc(Oc2ccc(C(C)(C)c3ccc(O[C@H]4C[C@H](Nc5ccc6c(c5)C(=O)N(C5CCC(=O)NC5=O)C6=O)C4)cc3)cc2)n1 (stereo partly shown) [Example 591, 2-(2,6-dioxopiperidin-3-yl)-5-((1r,3r)-3-(4-(2-(4-((3-methyl-1,2,4-thiadiazol-5-yl)oxy)phenyl)propan-2-yl)phenoxy)cyclobutyl)aminoisoindolin-1,3-dione]		5000 to 30000 ng·h/mL	11 to 100 nM		
Cc1nnc(-c2nnc(Oc3ccc(C(C)(C)c4ccc(O[C@H]5C[C@H](Nc6ccc7c(c6)C(=O)N(C6CCC(=O)NC6=O)C7=O)C5)cc4)cc3)s2)o1 (stereo partly shown) [Example 593]		5000 to 30000 ng·h/mL	11 to 100 nM		
Cc1nc(-c2cnc(Oc3ccc(C(C)(C)c4ccc(O[C@H]5C[C@@H](Nc6ccc7c(c6)C(=O)N(C6CCC(=O)NC6=O)C7=O)C5)cc4)cc3)cn2)no1 (stereo partly shown) [Example 598, 2-(2,6-dioxopiperidin-3-yl)-5-(((1s,3s)-3-(4-(2-(4-((5-(5-methyl-1,2,4-oxadiazol-3-yl)pyrazin-2-yl)oxy)phenyl)propan-2-yl)phenoxy)cyclobutyl)amino)isoindolin-1,3-dione]		5000 to 30000 ng·h/mL	11 to 100 nM		
Cc1nc(-c2cncc(Oc3ccc(C(C)(C)c4ccc(O[C@H]5C[C@@H](Nc6ccc7c(c6)C(=O)N(C6CCC(=O)NC6=O)C7=O)C5)cc4)cc3)n2)no1 (stereo partly shown) [Example 599]		5000 to 30000 ng·h/mL	11 to 100 nM		

Continued, values first:

IC50 (22RV1 cells; [3])	AUC(0-inf) [1]	DC50 [2]	IC50 (22RV1 cells; read-out: 22RV1 IC50, 22RV1 cells, 6 days culture, CCK-8, OD 450 nm)	After oral administration of 3 mg/kg, mouse plasma exposure AUCinf (μg*h/mL) [1]	Compound
4 nM	1000 to 5000 ng·h/mL	< 10 nM			CC(C)(c1ccc(Oc2ccc(-n3nccn3)nc2)cc1)c1ccc(O[C@H]2C[C@H](Nc3ccc4c(c3)CN(C3CCC(=O)NC3=O)C4=O)C2)cc1 (stereo partly shown) [Example 94]
15 nM	5000 to 30000 ng·h/mL	< 10 nM			CC(C)(c1ccc(Oc2cnc(C#N)nc2)cc1)c1ccc(O[C@H]2C[C@H](Nc3ccc4c(c3)C(=O)N(C3CCC(=O)NC3=O)C4=O)C2)cc1 (stereo partly shown) [Example 97, 5-(4-(2-(4-((1r,3r)-3-((2-(2,6-dioxopiperidin-3-yl)-1,3-dioxoisoindolin-5-yl)amino)cyclobutyloxy)phenyl)propan-2-yl)phenoxy)pyrimidin-2-carbonitrile]
4 nM	100 to 1000 ng·h/mL	< 10 nM			CC(C)(c1ccc(Oc2ccc(C#N)nn2)cc1)c1ccc(O[C@H]2C[C@H](Nc3ccc4c(c3)C(=O)N(C3CCC(=O)NC3=O)C4=O)C2)cc1 (stereo partly shown) [Example 98, 6-(4-(2-(4-((1r,3r)-3-((2-(2,6-dioxopiperidin-3-yl)-1,3-dioxoisoindolin-5-yl)amino)cyclobutyloxy)phenyl)propan-2-yl)phenoxy) pyridazine-3-carbonitrile]
	5000 to 30000 ng·h/mL	< 10 nM	17 nM		Cc1nc(-c2ncc(Oc3ccc(C(C)c4ccc(O[C@H]5C[C@H](Nc6ccc7c(c6)C(=O)N(C6CCC(=O)NC6=O)C7=O)C5)cc4)cc3)cn2)no1 (stereo partly shown) [Example 99]
3 nM	5000 to 30000 ng·h/mL	< 10 nM			CC(=O)c1nccc(COc2ccc(C(C)(C)c3ccc(O[C@H]4C[C@H](Nc5ccc6c(c5)C(=O)N(C5CCC(=O)NC5=O)C6=O)C4)cc3)cc2)n1 (stereo partly drawn) [Example 110, 5-(((trans)-3-(4-(2-(4-((2-acetylpyrimidin-4-yl)methoxy)phenyl)propan-2-yl)phenoxy)cyclobutyl)amino)-2-(2,6-dioxopiperidin-3-yl)isoindolin-1,3-dione]
2 nM	5000 to 30000 ng·h/mL	< 10 nM			CC(=O)c1ncc(Oc2ccc(C(C)(C)c3ccc(O[C@H]4C[C@H](Nc5ccc6c(c5)C(=O)N(C5CCC(=O)NC5=O)C6=O)C4)cc3)cc2)cn1 (stereo partly drawn) [Example 119, 5-(((trans)-3-(4-(2-(4-((2-acetylpyrimidin-5-yl)oxy)phenyl)propan-2-yl)phenoxy)cyclobutyl)amino)-2-(2,6-dioxopiperidin-3-yl) isoindolin-1,3-dione]
10 nM	5000 to 30000 ng·h/mL	< 10 nM			CC(O)c1ccc(Oc2ccc(C(C)(C)c3ccc(O[C@H]4C[C@H](Nc5ccc6c(c5)C(=O)N(C5CCC(=O)NC5=O)C6=O)C4)cc3)cc2)nn1 (stereo partly shown) [Example 125]
6 nM	5000 to 30000 ng·h/mL	< 10 nM			CC(=O)c1ccc(Oc2ccc(C(C)(C)c3ccc(O[C@H]4C[C@H](Nc5ccc6c(c5)C(=O)N(C5CCC(=O)NC5=O)C6=O)C4)cc3)cc2)nn1 (stereo partly drawn) [Example 126, 5-(((trans)-3-(4-(2-(4-((6-acetylpyridazine-3-yl)oxy)phenyl)propan-2-yl)phenoxy)cyclobutyl)amino)-2-(2,6-dioxopiperidin-3-yl)isoindolin-1,3-dione]
6 nM	5000 to 30000 ng·h/mL	< 10 nM			Cc1nc(-c2ccnc(Oc3ccc(C(C)(C)c4ccc(O[C@H]5C[C@H](Nc6ccc7c(c6)C(=O)N(C6CCC(=O)NC6=O)C7=O)C5)cc4)cc3)n2)no1 (stereo partly shown) [Example 166]
4 nM	1000 to 5000 ng·h/mL	< 10 nM			CCC(CC)(c1ccc(Oc2ccc(C(C)O)nn2)cc1)c1ccc(O[C@H]2C[C@H](Nc3ccc4c(c3)C(=O)N(C3CCC(=O)NC3=O)C4=O)C2)cc1 (stereo partly shown) [Example 175, 2-(2,6-dioxopiperidin-3-yl)-5-(((1r,3r)-3-(4-(3-(4-((6-(1-hydroxylethyl)pyridazine-3-yl)oxy)phenyl)pentan-3-yl)phenoxy)cyclobutyl)amino)isoindolin-1,3-dione]
6 nM	100 to 1000 ng·h/mL	< 10 nM			CNC(=O)c1nccc(COc2ccc(C(C)(C)c3ccc(O[C@H]4C[C@@H](Nc5ccc6c(c5)C(=O)N(C5CCC(=O)NC5=O)C6=O)C4)cc3)cc2)n1 (stereo partly shown) [Example 187, 4-((4-(2-(4-((1s,3s)-3-((2-(2,6-dioxopiperidin-3-yl)-1,3-dioxoisoindolin-5-yl)amino)cyclobutyloxy)phenyl)propan-2-yl)phenoxy)methyl)-N-methylpyrimidin-2-carbonylamine]

— patent publication US20250051347A1, “BIFUNCTIONAL CHIMERIC HETEROCYCLIC COMPOUND AND USE THEREOF AS ANDROGEN RECEPTOR DEGRADER” (Hinova Pharmaceuticals, Inc., priority 2021, published 2025)
